Key:
[1] = target: human ENPP2 (Homo sapiens, UniProt Q13822); assay: In vitro bis-pNPP assay (ATX inhibitory activity); assay type: biochemical; settings: for IC50: in vitro bis-pNPP assay, human ENPP2
Procedure: We confirmed the ATX inhibitory activity of each compound using bis-pNPP assay. First, 50 μL of 60 mM Tris-HCl (pH 9.0) solution was poured into a 96-well plate and 10 μL of the test compound solution (10% dimethyl sulfoxide) was added. Subsequently, 20 μL of a 3.75 nM human ENPP2 solution (buffer: 50 mM Tris-HCl (pH 8.5), 5 mM CaCl2, 2.5 mM MgCl2, 0.002% Brij 35) and 20 μL of 25 mM bis-pNPP solution (buffer: 50 mM Tris-HCl (pH 9.0)) were added and mixed. Spectrophotometric measurement was carried out at 405 nm at intervals of 10 s while reacting under 37 °C for 10 min.

[2] = target: T1, ATX (Homo sapiens, UniProt Q13822); assay: Ex vivo human plasma assay (LPC to LPA, LC-MS/MS); assay type: biochemical; settings: 37 °C, 3 h
T1 construct: from tissue; host or cells: human plasma / serum
Procedure: First, 5 μL of each test compound solution (10 mM, 100% dimethyl sulfoxide) was diluted 100 times with 495 μL of methanol and then 3 μL of a diluted methanol solution (1% dimethyl sulfoxide) was added to a human or rat serum solution. Next, 12 μL of the test compound solution was mixed into 48 μL of 100% serum in order to make 5 concentrations, and each tube was placed in a constant temperature water bath at 37 °C for 15 min. Subsequently, 10 mg/mL 18: 1 LPC solution (50% ethanol) was diluted to 375 μg/mL with serum and 2 μL was dispensed into each tube to make 50 μL. Each tube was reacted in a constant temperature water bath at 37 °C for 3 h. Then, 100 μL of a 0.5 μM 17:0 LPA solution (Chloroform/Methanol/Water = 65/35/8) was added to the reaction tube. Reaction mixture was centrifuged at 14,000 rpm, at 4 °C for 10 min in a centrifuge. Thereafter, 100 μL of 50% methanol solution was first dissolved in a 96-well polypropylene plate (Agilent Technologies 5042-1385, Santa Clara, CA, USA), and then 50 μL of the supernatant was carefully transferred from the centrifuged tube to the plate. Then, it was covered with a well cap (Thermo 276011, Thermo Fisher Scientific Solutions LLC, Seoul, Korea) and analyzed by LC-MS/MS (Agilent 1260).

Work on `NS(=O)(=O)Nc1ccc(C(=O)Nc2ccc3c(c2)CN(C(=O)OCc2cc(Cl)cc(Cl)c2)C3)cc1` [Compound 4, (3,5-dichlorophenyl)methyl 5-[4-(sulfamoylamino)benzamido]-2,3-dihydro-1H-isoindole-2-carboxylate] yielded an IC50 [1] of 12.7 nM.
With `NS(=O)(=O)Nc1ccc(NC(=O)c2ccc3c(c2)CN(C(=O)OCc2cc(Cl)cc(Cl)c2)C3)cc1` [Compound 3, (3,5-dichlorophenyl)methyl 5-{[4-(sulfamoylamino)phenyl]carbamoyl}-2,3-dihydro-1H-isoindole-2-carboxylate] the IC50 [1] was 3.86 nM and the IC50 [2] was 827 nM.
With `NS(=O)(=O)Nc1ccc(C(=O)NC2CCN(C(=O)OCc3cc(Cl)cc(Cl)c3)CC2)cc1` [Compound 2, (3,5-dichlorophenyl)methyl 4-[4-(sulfamoylamino)benzamido]piperidine-1-carboxylate] the IC50 [1] was 44.5 nM and the “potency relative to compound 1 in the bis-pNPP assay” value ([1]; ratio of bis-pNPP IC50 values, compound 2 vs compound 1) was “five-fold more potent”.
